Columns and labels:
[1] = tested on: human A549 lung cancer xenografts; assay: A549 lung cancer xenograft, cells electroporated before implantation; type: in vivo, NOD/SCID mice
Method: The inventors assessed the growth-inhibitory activity of hsa-miR-126 in human lung cancer xenografts grown in immunodeficient mice. Hsa-miR-126 was delivered into A549 and H460 lung cancer cells via electroporation using the Gene Pulser Xcell™ (BioRad) with the following settings: 15×10^6 cells with 5 μg miRNA in 200 μl OptiMEM, square wave pulse at 150 V for 10 ms. Electroporated cells (5×10^6) were mixed with BD Matrigel™, (BD Biosciences; San Jose, Calif., USA; cat. no. 356237) in a 1:1 ratio and injected subcutaneously into the flank of NOD/SCID mice (Charles River Laboratories, Inc.; Wilmington, Mass., USA). As a negative control, A549 and H460 cells were electroporated with negative control (NC) miRNA (Pre-miR™ microRNA Precursor Molecule-Negative Control #2; Ambion cat. no. AM17111) as described above. To assess the anti-oncogenic activity of hsa-miR-126, six animals were injected with A459 cells and six animals were injected with H460 cells. NC miRNA-treated cells were injected into the opposite flank of the same animal to control for animal-to-animal variability. Once tumors reached a measurable size (A549 at 7 days post injection; H460 at 5 days post injection), the length and width of tumors were determined every day for up to 11 days. Tumor volumes were calculated using the formula, Volume=length X width X width/2, in which the length is greater than the width. For animals carrying A549 xenografts, tumor volumes derived from NC-treated cells and hsa-miR-126-treated cells were averaged and plotted over time (FIG. 4). The p value, indicating statistical significance, is shown for values obtained on day 18 (p=0.0125).

[2] = tested on: human PPC-1 prostate cancer xenograft; assay: PPC-1 prostate cancer xenograft; type: in vivo, NOD/SCID mice; details: PPC-1 xenograft
Method: Therefore, hsa-miR-126 is a likely to interfere with prostate tumor growth in the animal. To explore this possibility, the therapeutic potential of synthetic hsa-miR-126 miRNA was evaluated in the animal using the PPC-1 human prostate cancer xenograft. As described in Example 8, 5×10^6 PPC-1 cells per animal were electroporated with 1.6 μM synthetic hsa-miR-126 or negative control miRNA (Pre-miR™-hsa-miR-126, Ambion cat. no. AM17100; NC, Pre-miR™ microRNA Precursor Molecule-Negative Control #2, Ambion cat. no. AM17111), mixed with BD Matrigel™, (BD Biosciences; San Jose, Calif., USA; cat. no. 356237) in a 1:1 ratio and implanted subcutaneously into the lower back of NOD/SCID mice (Charles River Laboratories, Inc.; Wilmington, Mass., USA). A group of 7 mice was injected with hsa-miR-126 treated PPC-1 cells, and a group of 7 animals was injected with PPC-1 cells treated with negative control miRNA. To maintain steady levels of miRNA, 6.25 μg of each hsa-miR-126 or negative control miRNA conjugated with the lipid-based siPORT™ amine delivery agent (Ambion, Austin, Tex.; cat. no. AM4502) were repeatedly administered on days 7, 13 and 20 via intra-tumoral injections. Given an average mouse weight of 20 g, this dose equals 0.3125 mg/kg. Tumor growth was monitored by taking caliper measurements every 1-2 days for 22 days. Tumor volumes were calculated using the formula, Volume=length×width×width/2, in which the length is greater than the width, and plotted over time (FIG. 13). Standard deviations and data points with p values <0.01, indicating statistical significance, are shown in graph.

[3] = tested on: MCF12A, BT549, TE353SK, 22Rv1, A549, CRL-5826, HTB-57 cells; details: cited from earlier work

hsa-miR-126 (UCGUACCGUGAGUAAUAAUGC; synthetic pre-miR form, further chemistry not given here) [Synthetic hsa-miR-126 (Pre-miR™-hsa-miR-126, Ambion cat. no. AM17100)]
tumor size relative to control tumors ([1]; A549, day 18, n=6): all animals showed smaller tumors | tumor growth in vivo ([1]; A549 cells electroporated with miRNA before s.c. implantation): inhibited tumor growth in vivo | Ki-67 antigen in tumors (histology) ([1]; A549 tumors): diminished levels of the Ki-67 antigen | average volume of tumors ([2]; day 22, 6.25 μg intratumoral days 7, 13, 20): 157 mm^3 | tumor volumes after treatment ([2]; in response to treatments on days 7 and 13): approximately 130 mm^3 | tumor growth ([2]; repeated dosing): blocked tumor growth | effect on proliferation [3]: decreasing proliferation

From US20090131354A1, “miR-126 REGULATED GENES AND PATHWAYS AS TARGETS FOR THERAPEUTIC INTERVENTION” (priority 2007, published 2009)
